# Results: patent US20200325509A1, “Microorganisms and Methods in the Fermentation of Benzylisoquinoline Alkaloids” (Intrexon Corporation, priority 2017, published 2020)
# Legend:
# THS2 = THS2 (Papaver somniferum, UniProt A0A2U9GGW3); assay: direct in vitro THS assay (kinetic analysis of THS2); conditions: for inhibition of THS2 activity on (7S)-salutaridinol 7-O-acetate: added to the direct assay
# [1] = stability of salutaridinol 7-O-acetate in chloroform and aqueous conditions
# [2] = substrate of purified recombinant THS2, direct assay quenched after 30 sec
# Sequence of THS2 (A0A2U9GGW3 whole entry): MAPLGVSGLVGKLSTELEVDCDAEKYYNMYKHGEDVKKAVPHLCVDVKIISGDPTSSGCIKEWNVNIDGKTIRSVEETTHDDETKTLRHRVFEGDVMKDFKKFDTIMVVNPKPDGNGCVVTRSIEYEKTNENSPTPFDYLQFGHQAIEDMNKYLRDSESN
smiles,measurement,setting,value
COC1=C[C@]23CCN(C)[C@H](Cc4ccc(OC)c(O)c42)C3=C[C@@H]1O [(7S)-salutaridinol],inhibition of THS2 activity on (7S)-salutaridinol 7-O-acetate,THS2,marginally inhibited
same,thebaine production by THS2 directly from the substance,THS2; pH 7.0,did not produce thebaine
COC1=C[C@]23CCN(C)[C@H](Cc4ccc(OC)c(O)c42)C3=C[C@@H]1OC(C)=O [(7S)-salutaridinol 7-O-acetate],pH optimum,"THS2; THS2 activity on this substrate, direct assay 30 sec, 40 μM substrate",8.0
same,positive cooperativity (η),"THS2; substrate of purified recombinant THS2, direct assay",2.3
same,KA,THS2; [2],20 µM
same,Vmax,THS2; [2],4.0 nmol min^1 μg^−1
same,formation of m/z 330-byproduct,[1]; exposure to aqueous conditions,> 70%
same,time of formation of m/z 330-byproduct,[1]; exposure to aqueous conditions,< 2 min
same,stability,[1]; in chloroform,relatively stable
COC1=C[C@]23CCN(C)[C@H](Cc4ccc(OC)c(O)c42)C3=CC1=O [salutaridine],inhibition of THS2 activity on (7S)-salutaridinol 7-O-acetate,THS2,marginally inhibited
